The IC50 is the concentration that inhibits the measured activity by half. A low value points to higher potency.

Molecules are shown by their SMILES.

These results are taken from article PMC3262007, “A Fluorescence-Based High-Throughput Assay for the Discovery of Exchange Protein Directly Activated by Cyclic AMP (EPAC) Antagonists” (PLoS ONE, 2012).

Experiment [1] concerns the target T1, EPAC2 (Mus musculus, UniProt Q9EQZ6).
T1 construct: when titrated with purified full-length EPAC2; made in house
T1 sequence (Q9EQZ6 1-993 isoform Q9EQZ6-3): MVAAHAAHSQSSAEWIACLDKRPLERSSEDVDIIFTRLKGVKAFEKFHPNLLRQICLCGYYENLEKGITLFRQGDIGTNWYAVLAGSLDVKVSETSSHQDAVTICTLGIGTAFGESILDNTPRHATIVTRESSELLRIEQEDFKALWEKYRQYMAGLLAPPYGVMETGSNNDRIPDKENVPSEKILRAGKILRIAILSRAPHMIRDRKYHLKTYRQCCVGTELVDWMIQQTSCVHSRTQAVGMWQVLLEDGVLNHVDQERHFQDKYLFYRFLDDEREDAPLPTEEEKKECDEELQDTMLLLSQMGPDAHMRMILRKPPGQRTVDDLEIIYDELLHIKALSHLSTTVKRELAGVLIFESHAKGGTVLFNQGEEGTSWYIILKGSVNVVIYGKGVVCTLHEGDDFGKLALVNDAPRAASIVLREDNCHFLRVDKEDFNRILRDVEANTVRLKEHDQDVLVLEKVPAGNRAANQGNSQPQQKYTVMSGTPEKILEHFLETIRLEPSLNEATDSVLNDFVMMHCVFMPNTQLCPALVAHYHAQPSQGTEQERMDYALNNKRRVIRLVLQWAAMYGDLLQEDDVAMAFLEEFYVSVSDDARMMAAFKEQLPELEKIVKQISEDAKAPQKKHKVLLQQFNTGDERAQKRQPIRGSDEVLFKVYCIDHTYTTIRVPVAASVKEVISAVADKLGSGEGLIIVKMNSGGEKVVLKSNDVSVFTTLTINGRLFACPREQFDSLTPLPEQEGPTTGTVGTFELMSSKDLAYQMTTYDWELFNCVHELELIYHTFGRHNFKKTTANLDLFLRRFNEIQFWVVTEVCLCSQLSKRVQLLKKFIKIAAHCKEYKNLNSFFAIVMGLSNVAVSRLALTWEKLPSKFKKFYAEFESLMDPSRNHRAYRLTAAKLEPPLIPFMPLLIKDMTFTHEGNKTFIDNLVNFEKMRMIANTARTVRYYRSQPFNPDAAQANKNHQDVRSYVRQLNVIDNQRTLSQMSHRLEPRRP
In words: 8-NBD-cAMP competition / primary screen fluorescence assay. Type of experiment: binding. The following applies: for dose response of EPAC2/8-NBD-cAMP fluorescence signal: dose-dependent response, Figure 2; for IC50: competition with 8-NBD-cAMP in binding to EPAC2. The procedure:
Primary screen of NCI DTP (Developmental Therapeutics Program) diversity set library was performed in black 96-well microplates from Corning Costar (Cambridge, MA, USA). Briefly, 50 nM EPAC2 solution was prepared in 20 mM Tris buffer, pH 7.5, containing 150 mM NaCl, 1 mM EDTA and 1 mM […]. […] Test compounds were added from 10 mM stock solutions in DMSO. […] Fluorescence intensity signal from 8-NBD probe was recorded at room temperature before and after tested compounds were added using SpectaMaxM2 microplate reader (Molecular Devices, Silicon Valley, CA, USA) with excitation/emission wavelengths set at 470/540 nm.

In another experiment the target is T2, type I PKA holoenzyme (Homo sapiens, UniProt P10644).
T2 construct: made in house; host or cells: E. coli
Description: Type I PKA holoenzyme kinase activity (counter screening assay). Type of experiment: biochemical. The conditions noted are these: 25 µM compound, 0.1 mM cAMP. Here is the method:
(§1) Kinase activities of the type I and II PKA holoenzymes were measured spectrophotometrically in a 96-well plate with a coupled enzyme assay as described previously. In this assay, the formation of the ADP is coupled to the oxidation of NADH by the pyruvate kinase/lactate dehydrogenase reactions so the reaction rate can be determined by following the oxidation of NADH, reflected by a decrease in absorbance at 340 nm. […] Reactions were pre-equilibrated at room temperature and initiated by adding the Kemptide substrate (final concentration 0.26 mM). PKA activities measured in the presence of 25 µM H89, a selective PKA inhibitor, were used as positive controls of PKA inhibition.
Background: Counterscreens check selectivity or assay interference.

The next experiment has as its target T3, type II PKA holoenzyme (Homo sapiens, UniProt P31323).
T3 construct: made in house; host or cells: E. coli
In words: Type II PKA holoenzyme kinase activity (counter screening assay). In kind it is biochemical. The conditions noted are these: 25 µM compound, 0.1 mM cAMP. The procedure:
as §1

Experiment [2] has as its target T1, EPAC2. In words: EPAC2 GEF activity, Rap1 nucleotide exchange (secondary confirmation assay). The following applies: 25 µM compound in the presence of 25 µM cAMP. In kind it is biochemical. The procedure:
Measurement of in vitro guanine nucleotide exchange factor (GEF) activity of EPAC was adapted from a well known fluorescence-based assay using a fluorescent guanine nucleotide analog, and used as a functional confirmation assay for the compounds identified from primary screen. […] Exchange of Mant-GDP by GDP was measured as a decrease in fluorescence intensity over time using a FluoroMax-3 spectrofluorometer with excitation/emission wavelengths set at 366/450 nm. Typically, decay in the fluorescence intensity was recorded over a time course of 6000 s with data points taken every 60 s.

In another experiment the test system is EPAC. The conditions noted are these: cited from earlier work.

T3 sequence (P31323 whole entry): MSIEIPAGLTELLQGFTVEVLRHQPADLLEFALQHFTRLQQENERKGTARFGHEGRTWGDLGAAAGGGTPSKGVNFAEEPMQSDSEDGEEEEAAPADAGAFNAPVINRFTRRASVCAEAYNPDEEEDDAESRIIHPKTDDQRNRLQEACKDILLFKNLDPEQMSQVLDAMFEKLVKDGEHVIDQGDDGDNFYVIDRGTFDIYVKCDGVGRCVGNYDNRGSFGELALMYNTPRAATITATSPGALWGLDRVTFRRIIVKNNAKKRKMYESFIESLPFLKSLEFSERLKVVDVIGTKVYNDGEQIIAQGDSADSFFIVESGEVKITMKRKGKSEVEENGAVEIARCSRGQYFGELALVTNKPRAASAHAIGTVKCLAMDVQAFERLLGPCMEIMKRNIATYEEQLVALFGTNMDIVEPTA
T2 sequence (P10644 whole entry): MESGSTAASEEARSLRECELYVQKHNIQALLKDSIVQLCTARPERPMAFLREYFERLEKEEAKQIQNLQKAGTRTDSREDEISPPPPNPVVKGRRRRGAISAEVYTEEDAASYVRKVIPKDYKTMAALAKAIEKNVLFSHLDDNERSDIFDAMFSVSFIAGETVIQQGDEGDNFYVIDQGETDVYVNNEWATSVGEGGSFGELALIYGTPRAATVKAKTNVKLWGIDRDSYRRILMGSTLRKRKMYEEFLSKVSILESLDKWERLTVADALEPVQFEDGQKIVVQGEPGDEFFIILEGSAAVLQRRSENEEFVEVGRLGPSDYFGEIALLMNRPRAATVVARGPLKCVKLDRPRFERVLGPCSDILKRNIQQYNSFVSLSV

Turning to `Nc1ncnc2c1ncn2C1CC2OP(=O)(O)OCC2O1` (stereo not shown) [2′-deoxy-cAMP, reference compound], at EPAC2 [1], the “dose response of EPAC2/8-NBD-cAMP fluorescence signal” value is recorded as “minimal effects”.
On EPAC2 [1], `O=C1C=CC2=C(Oc3c(ccc(O)c3O)/C2=C/C=C(O)O)C1=O` [NSC119911] yielded an IC50 of 3.8 µM. The “type I PKA activity blocked” value at type I PKA holoenzyme was roughly 50%. For the same compound, the “type II PKA activity blocked” value at type II PKA holoenzyme is recorded as roughly 50%. Also, at EPAC2 [2], the “inhibition of cAMP-mediated EPAC2 GEF activity” value (“inhibition” below) is “inhibit EPAC2 GEF activity to basal levels”.
On to `N#Cc1c(NC(=O)C(F)(F)F)sc2c3c(=O)c4ccccc4c(=O)c=3oc3ccccc3c12` [NSC686365], for which, at EPAC2 [1], the IC50 was found to be 7.9 µM. The “effect on cAMP-induced type I PKA holoenzyme activation” value on type I PKA holoenzyme is “did not significantly alter”. Also, the “effect on cAMP-induced type II PKA holoenzyme activation” value on type II PKA holoenzyme is “did not significantly alter”. The “inhibition” value at EPAC2 [2] is given as “inhibit EPAC2 GEF activity to basal levels”.
For the compound `Nc1ncnc2c1nc(Cl)n2[C@@H]1O[C@@H]2COP(=O)(O)O[C@H]2[C@H]1O` [8-Cl-cAMP, reference compound], at EPAC2 [1], the “dose response of EPAC2/8-NBD-cAMP fluorescence signal” value is given as “significant dose-dependent inhibitions”.
The same measure, in the same setting: the same measure for `O=c1[nH]c(=O)c2ncn(C3OC4COP(=O)(O)OC4C3O)c2[nH]1` (stereo not shown) [cXMP, reference compound]: “minimal effects”.
Turning to `CO[C@@H]1[C@@H]2OP(=O)(O)OC[C@H]2O[C@H]1n1c(Sc2ccc(Cl)cc2)nc2c(N)ncnc21` [8-CPT-2′-O-Me-cAMP, 8-(4-chloro-phenylthio)-2′-O-methyladenosine-3′,5′-cyclic monophosphate], the “selectivity towards EPAC over PKA” value in the experiment on EPAC is recorded as “about 100 fold”.
Compound `O=C1C=Cc2ccccc2C1=NNc1cccc2cc(S(=O)(=O)O)ccc12` [NSC45576] showed an IC50 at EPAC2 [1] of 1.7 µM. The “effect on cAMP-induced type I PKA holoenzyme activation” value at type I PKA holoenzyme is recorded as “did not significantly alter”. Moreover, the “effect on cAMP-induced type II PKA holoenzyme activation” value at type II PKA holoenzyme is “did not significantly alter”. In addition, at EPAC2 [2], the “inhibition” value was “inhibit EPAC2 GEF activity to basal levels”.
